The source of these data is publication PMC11601558, “SLC6A19 inhibition facilitates urinary neutral amino acid excretion and lowers plasma phenylalanine” (JCI Insight, 2024).

SMILES strings stand for the structures. Values joined by “and” are separate entries in the source; they are usually repeats but may differ in a detail not shown here. Equal values may be shown once. Read-outs that look alike come from different tables or passages of the source.

In this assay the target is T1, mouse SLC6A19 (Mus musculus, UniProt Q9D687).
T1 construct: expressed in transfected cells
T1 sequence (Q9D687 1-634): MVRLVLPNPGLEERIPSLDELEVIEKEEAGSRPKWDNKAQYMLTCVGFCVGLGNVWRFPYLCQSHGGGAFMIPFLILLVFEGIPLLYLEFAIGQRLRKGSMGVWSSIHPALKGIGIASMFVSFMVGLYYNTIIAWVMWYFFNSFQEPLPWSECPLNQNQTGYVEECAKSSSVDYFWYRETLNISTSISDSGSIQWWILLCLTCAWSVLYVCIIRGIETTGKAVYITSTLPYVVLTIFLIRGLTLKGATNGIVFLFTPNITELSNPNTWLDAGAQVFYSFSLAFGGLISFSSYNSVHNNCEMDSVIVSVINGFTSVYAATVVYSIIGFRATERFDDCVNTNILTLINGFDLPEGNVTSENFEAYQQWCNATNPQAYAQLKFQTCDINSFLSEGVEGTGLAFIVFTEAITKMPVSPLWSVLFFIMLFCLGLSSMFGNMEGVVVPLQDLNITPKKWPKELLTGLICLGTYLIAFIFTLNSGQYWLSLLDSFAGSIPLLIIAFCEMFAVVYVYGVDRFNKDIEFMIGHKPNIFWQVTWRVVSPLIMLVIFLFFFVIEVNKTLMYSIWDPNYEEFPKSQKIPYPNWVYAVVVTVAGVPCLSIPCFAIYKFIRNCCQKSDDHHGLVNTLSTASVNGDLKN
T1 sequence (Q9ESG4 15-222 partner): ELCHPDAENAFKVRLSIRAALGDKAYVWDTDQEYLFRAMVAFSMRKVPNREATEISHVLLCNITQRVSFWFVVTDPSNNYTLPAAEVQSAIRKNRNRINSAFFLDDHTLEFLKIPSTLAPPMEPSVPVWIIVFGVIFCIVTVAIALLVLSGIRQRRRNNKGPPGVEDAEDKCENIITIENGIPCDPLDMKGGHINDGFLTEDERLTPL
In words: Isoleucine transport assay, Flp-In T-REx 293 cells coexpressing mouse SLC6A19 and TMEM27. The assay is classed as cell-based. As to conditions: for isoleucine transport, Mouse (Fig 1c curve point) / isoleucine transport, Mouse (Fig 1f curve point): technical replicates; for IC50: read-out: IC50 against mouse SLC6A19, isoleucine transport assay. As for the experimental part: Flp-In T-REx 293 cells (Thermo Fisher Scientific) were engineered to coexpress C-terminally V5-tagged human or mouse SLC6A19 under the control of a tetracycline-inducible promoter and human or mouse myc-DDK-tagged TMEM27 under the control of a constitutively active promoter. Cells were maintained in DMEM/F12 medium supplemented with 10% FBS, 100 units/mL penicillin, 100 μg/mL streptomycin, 200 μg/mL hygromycin, 10 μg/mL blasticidin, and 300 μg/mL geneticin (all from Thermo Fisher Scientific) at 37°C and 5% CO2.
Flp-In T-REx 293 cells stably coexpressing human or mouse SLC6A19 and TMEM27 were plated in 384-well plates in the presence of 1 μg/mL tetracyclin (Sigma-Aldrich) to induce the expression of SLC6A19. After 24 hours, cells were washed with live cell imaging solution (LCIS, Thermo Fisher Scientific) before JN-170 or JNT-517 were added to cells in 10-point concentration response curves in 0.5% DMSO in Krebs buffer (140 mM NaCl, 4.7 mM KCl, 2.5 mM CaCl2, 1.2 mM MgCl2, 11 mM HEPES, 10 mM glucose, pH 7.4). Cells were incubated with compounds for 1 hour at room temperature before 1 mM ^13C6,^15N1-labeled L-isoleucine (Cambridge Isotope Laboratories) was added as a transport substrate. After 20 minutes incubation at room temperature, cells were washed and lysed in H2O with 15 μM internal standard D-Leucine-D10 (CDN Isotopes) for 1–2 hours. A standard curve of ^13C6,^15N1-L-isoleucine was added to each plate following cell lysis. Plates were centrifuged at 3,700g to remove cell debris, and supernatant was diluted in 2 steps to a final 1:10 dilution in acetonitrile/0.1% formic acid. Sample desalting was performed on a high throughput RapidFire-365 (Agilent) using a hydrophilic interaction liquid chromatography (HILIC) column. A quantitative time-of-flight (Q-ToF) mass spectrometer (Agilent) was used to detect analytes. Agilent MassHunter quantitative analysis for time of flight was used as the integration software for measuring area under the peak for both ^13C6,^15N1-L-isoleucine and D-Leucine-D10 internal standard.
IC50 values for transport inhibition in cells overexpressing SLC6A19 and TMEM27 were calculated using a 4-parameter logistic regression in Collaborative Drug Discovery (CDD). Reported IC50 values are geometric means of 4–6 independent experiments. For postmortem intestinal transport assays, single outliers of quadruplicate replicates were excluded from the calculation if a signal value’s distance to the mean exceeded 35% of the signal average. The IC50 values of individual experiments were calculated with a 3- or 4-parameter logistic regression using GraphPad Prism 9. The reported IC50 value represents the geometric mean of n = 5 experiments from 3 individual donors. Statistical comparison of urinary Phe excretion in Pah^enu2 mice treated with vehicle or JN-170 was conducted using 1-way analysis of variance (ANOVA) with Tukey’s post hoc comparison. Statistical analysis of baseline-adjusted plasma Phe in mice treated with vehicle or JN-170 was determined by 2-way ANOVA with Dunnett’s post hoc comparison. All statistical analyses were performed using GraphPad Prism 9. For clinical studies, group sizes were not determined based on statistical power calculations. Statistical significance of pharmacodynamic results was not assessed. Values are reported as mean (urinary Phe excretion, T1/2, Cl/F), geometric mean (Cmax/D, AUC0-inf/D), or median (Tmax).

The IC50 is the concentration that gives 50% inhibition. Consider `NC(=O)N1CCC[C@@H](N(C(=O)NCc2ccc(OC(F)(F)F)cc2F)C2CC2)C1` [JNT-517], for which the IC50 is greater than 11800 nM. Besides, the “isoleucine transport, Mouse (Fig 1c curve point)” value (0.000722 uM) was 87.6 and 103. Also, the “isoleucine transport, Mouse (Fig 1c curve point)” value (0.00219 uM) was 108 and 105. The “isoleucine transport, Mouse (Fig 1c curve point)” value (0.00438 uM) is 100 and 89.5. The “isoleucine transport, Mouse (Fig 1c curve point)” value (0.0153125 uM) is 85.6 and 104. Besides, the “isoleucine transport, Mouse (Fig 1c curve point)” value (0.048125 uM) was 88.3 and 96.6. The “isoleucine transport, Mouse (Fig 1c curve point)” value (0.144375 uM) was 78.2 and 95.8. Further, the “isoleucine transport, Mouse (Fig 1c curve point)” value (0.4375 uM) was 86.6 and 108. The “isoleucine transport, Mouse (Fig 1c curve point)” value (1.3125 uM) is 93.2 and 97.6. The “isoleucine transport, Mouse (Fig 1c curve point)” value (3.9375 uM) is 89 and 86.1. Further, the “isoleucine transport, Mouse (Fig 1c curve point)” value (11.8125 uM) was 86 and 88.2.
Consider `N#Cc1ccc(-c2noc([C@]3(C(F)(F)F)CCN(C(=O)NCCC4(N)CC4)C3)n2)cc1` [JN-170], for which the “isoleucine transport, Mouse (Fig 1f curve point)” value is 84.1 and 94.9 (0.000722 uM); 91.4 and 88.7 (0.00219 uM); 84.6 and 91.9 (0.00438 uM); 82.4 and 86.6 (0.015313 uM); 65.9 and 67.7 (0.048125 uM); 32.3 and 28.6 (0.144375 uM). Besides, the “isoleucine transport, Mouse (Fig 1f curve point)” value by setting is: (0.4375 uM) 14.6 and 12.2; (1.3125 uM) -0.346 and -1.17; (3.9375 uM) -4.28 and -6.91; (11.8125 uM) -7.48 and -5.64. For the same compound, the IC50 (geometric mean n = 6) was found to be 97 nM.
